The supplement of paper PMC11208160

Test: recombinant barcode read abundance after kanamycin selection (control-corrected) (log10(CPM+1)); higher = more efficient recombination; sequences stand for … in AGTGCAGAGAAAATCGGCCAGTTTTCTCTGCCTGCAGTCCGCATGCCGT…AGATTTATGCAGCGGACTGCCTTTCTCCCAAAGTGATAAACCGGACAGTATCATGGACCGGTTTTCCCGGTAATCCGTATTTGCAAGGTTGGTTTCACT; site = the 11-nt target
Outline: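 Duplicate cultures were plated either on chloramphenicol/ampicillin LB agar, serving as control, or on chloramphenicol/ampicillin/kanamycin with 0.1 mM IPTG. These came from a pooled E. coli library co-electroporated with a donor plasmid, each member pairing a target with an IS621 bridge RNA target-binding loop. Recombination efficiency equals averaged, control-corrected counts per million of recombinant-junction barcodes. It is listed as log10(CPM+1).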
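Note: IS621 recombinase and bridge RNA in Escherichia coli cells.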

| Sequence | recombinant barcode read abundance (log10) |
| --- | --- |
| GTATGGACTTGGGTTCTAACCTGTTGCAA (site GTATGGACTTT) | 1.32 |
| TAGTCGTCTTGGGTTCTAACCTGTTGCTA (site TATTTGTCTTA) | 0.438 |
| GTAAGCTCTTGGGTTCTAACCTGTTGCCT (site TTAAGCTCTAG) | 0.932 |
| CCATGGTCTTGGGTTCTAACCTGTTGCTT (site CCATGGTCTAA) | 1.78 |
| TGGCGTGCTTGGGTTCTAACCTGTTGCCT (site TGTTGTGCTAG) | 0.118 |
| ATCTGGGCTTGGGTTCTAACCTGTTGCCT (site ACCTGGGCTAG) | 0.0625 |
| TTATGATCTTGGGTTCTAACCTGTTGCCT (site TCATGAACTAG) | 0.0371 |
| ACAAAGACTTGGGTTCTAACCTGTTGCGC (site ACATAGACTGC) | 0.137 |
| ATTAGTGCTTGGGTTCTAACCTGTTGCCT (site ATTAGTGCTAG) | 0.0389 |
| ATGGATACTTGGGTTCTAACCTGTTGCGT (site AGGGATACTAC) | 0.219 |
| TATATAACTTGGGTTCTAACCTGTTGCCT (site TATATAACTAG) | 0.125 |
| TCTCAGCCTTGGGTTCTAACCTGTTGCCT (site TCTCAGCCTAG) | 0.453 |
| TGGCAGCCTTGGGTTCTAACCTGTTGCCT (site TGGCAGCCTAG) | 0.216 |
| CCTCGAGCTTGGGTTCTAACCTGTTGCGG (site CCTCGAGCTCC) | 1.86 |
| TGGCAGCCTTGGGTTCTAACCTGTTGCCT (site TGGCAGACTAG) | 0.0766 |
| GAGCGGACTTGGGTTCTAACCTGTTGCTA (site GAGCGGACTTA) | 1.83 |
| GAGCGCTCTTGGGTTCTAACCTGTTGCTG (site GAGCGCTCTAA) | 0.0574 |
| GCGAATCCTTGGGTTCTAACCTGTTGCCT (site GCGAATCCTAG) | 0.845 |
| ATCGTTGCTTGGGTTCTAACCTGTTGCCT (site ATCGTTGCTAG) | 0.657 |
| CCTCAGGCTTGGGTTCTAACCTGTTGCCT (site CCTCAGGCTAG) | 0.106 |
| GTGTGTACTTGGGTTCTAACCTGTTGCCT (site GTGTGTCCTAG) | 0.101 |
| TAGCCTACTTGGGTTCTAACCTGTTGCGC (site TAGCCTACTTC) | 0.0255 |

| Sequence | recombinant barcode read abundance (log10) |
| --- | --- |
| TAGAGCACTTGGGTTCTAACCTGTTGCCT (site TAGAGCACTAG) | 0.644 |
| CTCTTAACTTGGGTTCTAACCTGTTGCTA (site CTCTTAACTTA) | 0.128 |
| CGGACGTCTTGGGTTCTAACCTGTTGCCT (site CGGACGTCTAG) | 1.45 |
| CCTAACACTTGGGTTCTAACCTGTTGCCT (site ACTAACACTAG) | 0.0635 |
| CACTGGTCTTGGGTTCTAACCTGTTGCCT (site CACTGCTCTAG) | 0.0756 |
| GAGTGGCCTTGGGTTCTAACCTGTTGCGT (site GAGTGGCCTAC) | 2.4 |
| GATTCTCCTTGGGTTCTAACCTGTTGCAT (site GATTCTCCTAA) | 0.246 |
| TTAGCCTCTTGGGTTCTAACCTGTTGCCT (site TTAGCCTCTAG) | 2.66 |
| CTGTTGTCTTGGGTTCTAACCTGTTGCCA (site CTGATGTCTTG) | 0.204 |
| CATTATCCTTGGGTTCTAACCTGTTGCCT (site CACTATCCTAG) | 0.161 |
| TAGAACACTTGGGTTCTAACCTGTTGCTG (site TAGAACACTGA) | 0.132 |
| CAGAGGTCTTGGGTTCTAACCTGTTGCCT (site CAGAGCTCTAG) | 0 |
| TAGTCCTCTTGGGTTCTAACCTGTTGCTT (site TAGTCCTCTCA) | 0.173 |
| ACTATGTCTTGGGTTCTAACCTGTTGCCA (site ACTATGTCTTG) | 0.147 |
| AACCGCCCTTGGGTTCTAACCTGTTGCGT (site AACCGCCCTAC) | 2.47 |
| TAGTCCACTTGGGTTCTAACCTGTTGCGC (site CTCAAAGCTCG) | 0.0907 |
| CTGGACACTTGGGTTCTAACCTGTTGCCT (site CTGGACACTAG) | 1.83 |
| CGTAGAGCTTGGGTTCTAACCTGTTGCCT (site CGTAGAGCTAG) | 0.349 |
| CGGAATCCTTGGGTTCTAACCTGTTGCCT (site CGGAATCCTAC) | 0.00785 |
| CAAACAGCTTGGGTTCTAACCTGTTGCCT (site CAAACACCTAG) | 0.634 |
| CGTGAACCTTGGGTTCTAACCTGTTGCGT (site CGTAAACCTAC) | 2.19 |
| TAGACGACTTGGGTTCTAACCTGTTGCAC (site TAGCCGTCTGT) | 0.173 |

| Sequence | recombinant barcode read abundance (log10) |
| --- | --- |
| GAGGAGTCTTGGGTTCTAACCTGTTGCCT (site GAGCAGTCTAG) | 0.0568 |
| TTAGAGTCTTGGGTTCTAACCTGTTGCCT (site TTAGAGCCTAG) | 0.925 |
| AGCCGAACTTGGGTTCTAACCTGTTGCCT (site CGCCGAACTAG) | 0.11 |
| GCGGATCCTTGGGTTCTAACCTGTTGCCT (site GCGTATCCTAG) | 1.05 |
| TGTCGGACTTGGGTTCTAACCTGTTGCAA (site TGTCGGACTAT) | 0.146 |
| TTCAAGACTTGGGTTCTAACCTGTTGCCT (site TTCAAGTCTAG) | 0.241 |
| GTGGAAGCTTGGGTTCTAACCTGTTGCCT (site GAGGAAGCTAG) | 0.316 |
| GAGGAGTCTTGGGTTCTAACCTGTTGCCT (site GAGAAGTCTAG) | 1.02 |
| CGTGGGCCTTGGGTTCTAACCTGTTGCCT (site CATGGGCCTAG) | 0.295 |
| CCTGATTCTTGGGTTCTAACCTGTTGCCT (site CCTGACTCTAG) | 0.113 |
| ATCGGACCTTGGGTTCTAACCTGTTGCTG (site ATCGGACCTCA) | 0.901 |
| GCATACACTTGGGTTCTAACCTGTTGCCA (site TGCAGGGCTCC) | 0.0903 |
| GTATGAGCTTGGGTTCTAACCTGTTGCTG (site ATTTGAGCTCA) | 0.288 |
| TAGGCTACTTGGGTTCTAACCTGTTGCAT (site TAGGCTACTAT) | 1.06 |
| TTACGAGCTTGGGTTCTAACCTGTTGCGG (site TTACGAGCTCC) | 1.81 |
| TCCAAACCTTGGGTTCTAACCTGTTGCAG (site TCCAATCCTCT) | 0.0156 |
| GCATACACTTGGGTTCTAACCTGTTGCCA (site GCATACACTTG) | 1.48 |
| CACGATGCTTGGGTTCTAACCTGTTGCCT (site CATGATGCTAG) | 0.351 |
| CCAGGGACTTGGGTTCTAACCTGTTGCCT (site CCATGGACTAG) | 0.0751 |
| TATTATACTTGGGTTCTAACCTGTTGCCT (site TATTATACTAA) | 0.00549 |
| TAGTCGTCTTGGGTTCTAACCTGTTGCCT (site TAGTCGTCTAG) | 1.3 |
| CGACAGTCTTGGGTTCTAACCTGTTGCCT (site TAGATTCCTTT) | 0.201 |

| Sequence | recombinant barcode read abundance (log10) |
| --- | --- |
| TAGCCTACTTGGGTTCTAACCTGTTGCGT (site TAGCCTACTTC) | 0 |
| AACTTCGCTTGGGTTCTAACCTGTTGCCT (site AACTTCACTAG) | 0.114 |
| ACGCGAGCTTGGGTTCTAACCTGTTGCTG (site ACGCGAGCTCA) | 0.0871 |
| CGCCCACCTTGGGTTCTAACCTGTTGCCT (site CTCCAACCTAG) | 0 |
| CAATTACCTTGGGTTCTAACCTGTTGCTT (site GCGCCCTCTCG) | 0.0793 |
| TACCGCTCTTGGGTTCTAACCTGTTGCTT (site TACAGCTCTAA) | 0.0488 |
| CCGGGATCTTGGGTTCTAACCTGTTGCCT (site TCGGGATCTAG) | 0.231 |
| CTCTCGGCTTGGGTTCTAACCTGTTGCCT (site CTCTCGGCTAG) | 0.865 |
| GTGGGCCCTTGGGTTCTAACCTGTTGCTG (site ATCGGCCCTCA) | 0.302 |
| GGTGGGTCTTGGGTTCTAACCTGTTGCGT (site GGTGGGTCTAA) | 0.97 |
| AACTTGACTTGGGTTCTAACCTGTTGCCT (site AACTTGACTAG) | 0.731 |
| CTTCAATCTTGGGTTCTAACCTGTTGCCT (site CTTTAATCTAG) | 0.0762 |
| CTATTATCTTGGGTTCTAACCTGTTGCCT (site CTATTATCTAG) | 0.935 |
| CTCATTCCTTGGGTTCTAACCTGTTGCGT (site CTCATTCCTAA) | 0.00984 |
| AGAAGCCCTTGGGTTCTAACCTGTTGCCT (site ATAAGCCCTAG) | 0.0722 |
| AGAAGCCCTTGGGTTCTAACCTGTTGCCT (site AAAAGCCCTAG) | 0.134 |
| TCCCGGACTTGGGTTCTAACCTGTTGCCT (site TCGCGGACTAG) | 0 |
| TACGGCTCTTGGGTTCTAACCTGTTGCTT (site TACTGCTCTAA) | 0.0509 |
| TTGCTAGCTTGGGTTCTAACCTGTTGCGG (site GGAACTACTGT) | 0.0762 |
| TGTCGGACTTGGGTTCTAACCTGTTGCAA (site TGTCGGACTGT) | 0.0423 |
